# Assay results taken from paper PMC11306511, “Combining VPS34 inhibitors with STING agonists enhances type I interferon signaling and anti‐tumor efficacy” (Molecular Oncology, 2024).
# Like-named read-outs stand apart in the source and are kept apart here.
# What was measured:
# [1] = biological target: T1, VPS34 (Homo sapiens, UniProt Q8NEB9); assay: biochemical
# Description: (§1) Compound dilution series was prepared in DMSO and further diluted to 4× final assay concentration in assay buffer (Buffer Q #PV5125, Thermo Fisher, supplemented with 2 mM DTT and 2 mM MnCl2). 2.5 μL of the diluted compounds were added to a 384‐well assay plate followed by 2.5 μL of 16.5 nM VPS34 enzyme (#PV5126; Thermo Fisher) and incubated for 15 min. Five microliters of substrate mix (20 μM ATP #PV3227 and 200 μM PI : PS substrate #PV5122; Thermo Fisher) in assay buffer was added, mixed, and incubated for 1 h. Five microliters of stop‐detection mix (Adapta kinase assay #PV5099; Thermo Fisher) were added, mixed, and incubated for 30 min and read with Artemis microplate reader. Percent remaining activity as compared to DMSO‐treated control samples was calculated and IC50 values were generated using […] PRISM (GraphPad Software, Inc., San Diego, CA, USA). The NanoBRET assay was performed using the manufacturer's protocol. Briefly, 293T cells were transfected with the Kinase‐NanoLuc® Fusion Vector DNA overnight. The next day cells were treated with compound and the NanoBRET tracer reagent and then read out measuring donor and acceptor emission wavelength (450 and 610 nm).
# [2] = biological target: T1, VPS34; assay: cell-based
# Description: as §1
# [3] = Solubility (PBS, FaSSIF, SGF); type: physicochemical
# Description: (§2) Experiments were conducted at Aragen Life Sciences Ltd. (Hyderabad, India) according to internal standard procedures.
# [4] = pKa; type: physicochemical; conditions: read-out: pKa (weakly basic)
# Description: as §2
# [5] = Shake flask LogD; type: physicochemical
# Description: as §2
# [6] = CaCo2 monolayer permeability assay; type: in vitro ADME; conditions: human, Caco-2
# Description: as §2
# [7] = biological target: CYP3A4 (Homo sapiens, UniProt P08684); assay: CYP inhibition; type: in vitro ADME
# Chain of CYP3A4 (P08684 whole entry): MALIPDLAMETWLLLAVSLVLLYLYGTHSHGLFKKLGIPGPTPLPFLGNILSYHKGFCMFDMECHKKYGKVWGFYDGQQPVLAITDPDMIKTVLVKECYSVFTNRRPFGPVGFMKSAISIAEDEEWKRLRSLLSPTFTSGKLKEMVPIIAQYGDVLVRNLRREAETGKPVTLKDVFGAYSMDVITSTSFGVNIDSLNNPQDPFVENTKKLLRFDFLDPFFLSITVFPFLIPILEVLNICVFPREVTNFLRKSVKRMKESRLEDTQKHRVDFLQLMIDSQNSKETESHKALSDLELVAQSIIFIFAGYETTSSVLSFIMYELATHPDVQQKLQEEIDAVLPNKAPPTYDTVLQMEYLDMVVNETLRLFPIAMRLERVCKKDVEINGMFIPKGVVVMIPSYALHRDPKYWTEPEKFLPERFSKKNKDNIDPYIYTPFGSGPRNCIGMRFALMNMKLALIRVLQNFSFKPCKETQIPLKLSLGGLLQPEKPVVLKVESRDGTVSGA
# Description: as §2
# [8] = biological target: T2, PXR (Homo sapiens, UniProt O75469); assay: CYP3A4 induction, PXR; type: in vitro ADME
# T2 sequence (O75469 1-434): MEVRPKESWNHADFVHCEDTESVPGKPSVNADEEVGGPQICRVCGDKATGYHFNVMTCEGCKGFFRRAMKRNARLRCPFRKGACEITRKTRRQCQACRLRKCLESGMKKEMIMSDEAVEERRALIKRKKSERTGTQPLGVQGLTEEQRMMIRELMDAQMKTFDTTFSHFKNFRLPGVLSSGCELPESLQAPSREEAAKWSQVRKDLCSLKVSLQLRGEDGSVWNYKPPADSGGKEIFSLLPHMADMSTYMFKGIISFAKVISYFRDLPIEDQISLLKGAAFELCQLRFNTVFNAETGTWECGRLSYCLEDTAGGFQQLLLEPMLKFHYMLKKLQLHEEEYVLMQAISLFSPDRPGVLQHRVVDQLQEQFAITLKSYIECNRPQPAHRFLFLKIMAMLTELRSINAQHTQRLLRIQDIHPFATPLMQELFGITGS
# Description: as §2
# [9] = Plasma protein binding, mouse; type: in vitro ADME; conditions: unbound/free fraction, read-out: PPB (% unbound) mouse
# Description: as §2
# [10] = Plasma protein binding, human; type: in vitro ADME; conditions: unbound/free fraction, read-out: PPB (% unbound) human
# Description: as §2
# [11] = In vivo mouse PK; conditions: in vivo mouse PK
# Description: as §2
# T1 sequence (Q8NEB9 whole entry): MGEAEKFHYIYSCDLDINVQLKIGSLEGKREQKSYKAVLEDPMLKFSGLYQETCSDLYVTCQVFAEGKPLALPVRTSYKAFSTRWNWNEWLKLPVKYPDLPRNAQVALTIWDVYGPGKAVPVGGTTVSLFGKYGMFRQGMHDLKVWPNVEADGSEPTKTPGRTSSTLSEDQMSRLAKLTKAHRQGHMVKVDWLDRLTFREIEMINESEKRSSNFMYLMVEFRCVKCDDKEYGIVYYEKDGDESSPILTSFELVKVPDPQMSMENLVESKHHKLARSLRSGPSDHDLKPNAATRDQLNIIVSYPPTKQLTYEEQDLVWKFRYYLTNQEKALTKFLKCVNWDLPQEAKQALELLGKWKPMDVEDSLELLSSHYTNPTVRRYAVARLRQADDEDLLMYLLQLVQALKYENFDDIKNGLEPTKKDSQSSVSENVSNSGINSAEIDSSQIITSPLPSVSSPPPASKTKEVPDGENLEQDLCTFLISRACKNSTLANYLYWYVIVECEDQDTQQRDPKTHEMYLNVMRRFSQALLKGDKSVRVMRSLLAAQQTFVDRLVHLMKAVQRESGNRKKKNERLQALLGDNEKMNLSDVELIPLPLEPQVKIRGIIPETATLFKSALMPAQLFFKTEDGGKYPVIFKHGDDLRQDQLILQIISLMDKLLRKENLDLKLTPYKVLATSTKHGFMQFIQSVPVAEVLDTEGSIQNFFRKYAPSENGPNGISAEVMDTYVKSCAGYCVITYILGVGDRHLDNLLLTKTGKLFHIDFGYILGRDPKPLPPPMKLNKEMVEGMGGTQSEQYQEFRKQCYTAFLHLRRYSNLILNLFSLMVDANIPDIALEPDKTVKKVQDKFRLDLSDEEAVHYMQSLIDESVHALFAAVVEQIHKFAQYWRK
compound,measurement,setting,value
C[C@@H]1COCCN1c1cc(N2CCCC[C@@H]2C(F)(F)F)[nH]c(=O)c1 [SB02024],IC50,[1],5 nM
same,IC50,[2],5.7 nM
same,solubility in both gastric and small intestinal pH media (in words),[3],excellent
same,solubility,"[3]; FaSSIF, pH 6.5, fassif, read-out: Solubility FaSSIF, pH 6.5",890 µM
same,solubility,"[3]; PBS buffer, pH 7.4, aqueous buffer, read-out: Solubility in PBS buffer, pH 7.4",175 µM
same,solubility,"[3]; SGF, pH 1.8, simulated gastric fluid, read-out: Solubility SGF, pH 1.8",2150 µM
same,pKa,[4],2.2
same,logD,[5],1.8
same,Papp A→B,[6],510 nm/s
same,efflux ratio,[6],0.9
same,inhibition of CYP3A (in words),[7],weak inhibition
same,inhibition at 10 µM,"[7]; human, 10 μM, 3A4, read-out: Highest CYP inhibition (%) @ 10 μM",14%
same,induction of CYP3A4 (in words),[8],no induction
same,fraction unbound,[9],0.14
same,fraction unbound,[10],0.44
same,Vd,[11],2.53 L/kg
same,clearance,[11],1.56 L/h/kg
